Test results taken from patent US12590963B2, “Anti-cancer treatment of preselected subjects and screening methods to identify susceptible subjects” (TUDAG TU Dresden Aktiengesellschaft, priority 2018, dated 2026).

System: U-87 cells
Assay: Drug screening of FDA-approved compound library, cell viability by ATP levels (ATPLite)
Format: cell-based, human
Details: FGFJI medium
Description: A library of 1,600 FDA-approved compounds was screened on U-87 cells cultured in the improved conditions. Each drug was screened at both 3 micromolar and 10 micromolar concentrations. Cell viability was assessed by measuring ATP levels.
Drugs that opposed cell viability were further investigated. These drugs were re-screened under the more common cell culture conditions (in serum-supplemented RMPI medium, where cells are more differentiated). Some drugs were identified that also opposed growth under the more differentiated conditions. We also identified some drugs that only opposed growth in the improved conditions. It was focused on the latter drugs only as being the target compounds of the present invention.
White Corning 384 well plates (Cat #3570) were coated with 40 ul of […] polyornithine (Sigma, #P-365) at 370C overnight. The next day the plates were washed 5 times with water using a BioTek EL 406 plate washer. The plates were then coated with 40 ul of 1 mg/ml fibronectin (R&D Systems, #1030-Fn) for 2 hours at 370C and then washed 2 times with PBS. Either 15nl or 50nl of either 10 mM library compounds (MicroSource Pharmakon library) or 100% DMSO as negative control or 1 mM Staurosporine (ACROS #328532500) were dispensed with a Labcyte Echo 550 to screen the library at 3u M and 10 μM respectively. U87 cells were seeded in the plates with a WellMate drop dispenser (ThermoFischer) at a density of 3000 cells per well in 50 μl N2 medium and incubated for 20 hours at 37 °C in 5% C02. Cell viability was assayed using Perkin Elmer ATPLite (Cat 6016731) according to vendor's instructions. For the dose dependent verification assay, cells were seeded in N2 medium with or without serum to test the specificity of compound action.
A library of 1,600 FDA-approved compounds was screened at two different concentrations (10 μM and 3 μM) on U-87 cells cultured in FGFJI (FIG. 8).

[1] = 10 μM, second value of the cell

SMILES | ATP assay score (3 μM, 10 μM) (3 μM, first value of the cell) | ATP assay score (3 μM, 10 μM) [1]
Oc1c(Cl)cc(Cl)cc1Sc1cc(Cl)cc(Cl)c1O.[Na+] [BITHIONATE Na, sodium 2,4-dichloro-6-(3,5-dichloro-2-hydroxyphenyl)sulfanylphenol] | −11 | −10
Oc1cc(Cl)ccc1Oc1ccc(Cl)cc1Cl [TRICLOSAN, 5-chloro-2-(2,4-dichlorophenoxy)phenol] | −7 | −5
CC(C)(C)CC(C)(C)c1ccc(O)c(Cc2ccc(Cl)cc2Cl)c1 [CLOFOCTOL, 2-[(2,4-dichlorophenyl)methyl]-4-(2,4,4-trimethylpentan-2-yl)phenol] | −11 | −5
Oc1c(I)cc(Cl)c2cccnc12 [CLIOQUINOL, 5-chloro-7-iodoquinolin-8-ol] | −11 | −7
CC[C@@H](C(=O)[C@@H](C)[C@@H](O)[C@H](C)CCc1ccc(C)c(O)c1C(=O)[O-])[C@H]1O[C@](CC)([C@H]2CC[C@](O)(CC)[C@H](C)O2)C[C@@H]1C.[Na+] [LASALOCID Na, sodium 6-[(3R,4S,5S,7R)-7-[(2S,3S,5S)-5-ethyl-5-[(2R,5R,6S)-5-ethyl-5-hydroxy-6-methyloxan-2-yl]-3-methyloxolan-2-yl]-4-hydroxy-3,5-dimethyl-6-oxononyl]-2-hydroxy-3-methylbenzoate] | −10 | −5
Oc1c(Br)cc(Br)c2cccnc12 [BROXYQUINOLINE, 5,7-dibromoquinolin-8-ol] | −11 | −8
